Laboratory results as given in patent US20100272699A1, “MC-1R, MC-2R, and/or µ OPIOID RECEPTORS STIMULATION” (BASF BEAUTY CARE SOLUTIONS FRANCE S.A.S., priority 2007, published 2010).

What was measured:
Type in all cases: cell-based, human
POMC = test: RT-PCR of POMC mRNA in keratinocytes put in contact with actives; conditions: mRNA vs untreated control, relative to actin, 24 hours, 1% plant extracts and biotechnological hydrolysates, 0.01% characterized molecules
Source text: In particular, the extracts are obtained by macerating plants (preferably roots, rhizomes, stems, bark, flowers, fruits, seeds, germs, or leaves) at 1-10% (p/p), usually 1-5% in a solvent or a mixture of solvents, usually a mixture of water and alcohol, glycol, or polyol (such as ethanol, glycerol, butylene glycol and other glycols, xylitol, etc.) 100/0 to 0/100, and preferably in water. The extracts obtained are then filtered or distilled in order to recover the soluble portion, which is then filtered, preferably at 0.45 μm. Biotechnological hydrolysates are obtained via the fermentation of plant extracts in the presence of microorganisms usually from the family of lactic bacteria, in particular bactobacillus plantarum, or paracasei, and bifidobacterium, in particular longum or Saccharomyces. These hydrolysates are then filtered, preferably to 0.45 μm, in order to obtain the active components. […]
(§1) The parameters of amplification have usually been the following: The technique of RT-PCR in real time is conducted with the “Quanti Tect SYBR Green RT-PCR” kit (Qiagen, France) on wells containing mRNA, in an OPTICON thermocycler, which carries out cycles of amplification. […] At the end of each cycle, fluorescence, which is proportional to the number of fragments amplified, is read. […]

μ opioid R = test: RT-PCR of μ opioid R mRNA in keratinocytes put in contact with actives; conditions: for stimulation of mRNA synthesis of the 3 receptors (μ opioid R): positive controls in keratinocytes: TGF-β 1 ng/ml, TNF-α 100 ng/mL, IL-1α 50 pg/ml, quantitative RT-PCR (x2 or x.08 for the 3 inducers)
Source text: (§2) In particular, the extracts are obtained by macerating plants (preferably roots, rhizomes, stems, bark, flowers, fruits, seeds, germs, or leaves) at 1-10% (p/p), usually 1-5% in a solvent or a mixture of solvents, usually a mixture of water and alcohol, glycol, or polyol (such as ethanol, glycerol, butylene glycol and other glycols, xylitol, etc.) 100/0 to 0/100, and preferably in water. The extracts obtained are then filtered or distilled in order to recover the soluble portion, which is then filtered, preferably at 0.45 μm. Biotechnological hydrolysates are obtained via the fermentation of plant extracts in the presence of microorganisms usually from the family of lactic bacteria, in particular bactobacillus plantarum, or paracasei, and bifidobacterium, in particular longum or Saccharomyces. These hydrolysates are then filtered, preferably to 0.45 μm, in order to obtain the active components.
(§3) The characterized molecules are prepared via dissolution in a solvent, usually DMSO, ethanol, glycol, and in particular DMSO at a concentration of 0.1%.
(§4) The active components are tested for keratinocytes after dissolution in the culturing environment: usually between 0.1% and 2% (v/v) for plants and biotechnological hydrolysates and in particular from 0.5% to 1% and usually between 0.001% and 0.01% for characterized molecules. The present results are obtained with 1% in the culturing environment for plant extracts and biotechnological hydrolysates, and with 0.01% for characterized molecules.
(§5) Keratinocytes taken from plastic surgery on normal adults through enzymatic digestion have been amplified in a specific environment for keratinocytes and then seeded, for example at 50,000 per cm^2 in 24-well plates and cultivated in a single layer in a definite no-serum environment. Upon convergence, the cells are put in contact with diluted actives in the culturing environment, usually for 24 hours.
(§6) In parallel, an untreated control (environment alone) and 3 positive controls (TGF-β at 1 ng/ml, IL-1α at 50 pg/ml and TNF-α at 100 ng/mL) are usually carried out, for example on the same cultivation plate. TGF-β at 1 ng/ml, TNF-α at 100 ng/mL, and IL-1α at 50 pg/ml were previously tested and stimulation of mRNA synthesis of the 3 receptors induced by these 3 cytokins at these concentrations was verified through an analysis of mRNA, for example by quantatitive RT-PCR (x2 or x.08 for the 3 inducers). […]
as §1

MC-2R = test: RT-PCR of MC-2R mRNA in keratinocytes put in contact with actives; conditions: for stimulation of mRNA synthesis of the 3 receptors (MC-2R): positive controls in keratinocytes: TGF-β 1 ng/ml, TNF-α 100 ng/mL, IL-1α 50 pg/ml, quantitative RT-PCR (x2 or x.08 for the 3 inducers)
Source text: as §2, §3, §4, §5, §6, §1

MC-1R = test: RT-PCR of MC-1R mRNA in keratinocytes put in contact with actives; conditions: for stimulation of mRNA synthesis of the 3 receptors (MC-1R): positive controls in keratinocytes: TGF-β 1 ng/ml, TNF-α 100 ng/mL, IL-1α 50 pg/ml, quantitative RT-PCR (x2 or x.08 for the 3 inducers)
Source text: as §2, §3, §4, §5, §6, §1

[1] = mRNA vs untreated control, relative to actin, keratinocytes, 24 hours, 1% plant extracts and biotechnological hydrolysates, 0.01% characterized molecules

| Compound | POMC Control X: (POMC) [Control X] | μ opioid R Control X: (μ opioid R; [1]) [Control X] | MC-2R Control X: (MC-2R; [1]) [Control X] | MC-1R Control X: (MC-1R; [1]) [Control X] | stimulation of mRNA synthesis of the 3 receptors (μ opioid R) (μ opioid R) | stimulation of mRNA synthesis of the 3 receptors (MC-2R) (MC-2R) | stimulation of mRNA synthesis of the 3 receptors (MC-1R) (MC-1R) |
| --- | --- | --- | --- | --- | --- | --- | --- |
| CC1=CC(=O)C2=C(C)CC(OC(=O)Cc3ccccc3)C3C(C)C(=O)OC3C12 (stereo not shown) [phenylacetic acid 3,6,9-trimethyl-2,7-dioxo-2,3,3a,4,5,7,9a,9b-octahydro-azuleno[4,5-b]furan-4-yl] | 1 | 1.0 | 20.0 | 20.0 |  |  |  |
| IL-1α: cytokine used as positive control at 50 pg/ml |  |  |  |  | stimulation | stimulation | stimulation |
| TGF-β |  |  |  |  | stimulation | stimulation | stimulation |
| TNF-α |  |  |  |  | stimulation | stimulation | stimulation |
